Drawing on PubChem BioAssay (NCI), this text covers TGI for eleven molecules.

Molecules are shown by their SMILES.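 Grown in 96-well plates, cells were treated for 48 hours with each compound at five concentrations. Insufficient inhibition: endpoint recorded as highest concentration tested. TGI denotes the concentration required for complete inhibition of growth.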

Among the test systems are A498 renal; ACHN renal; CCRF-CEM leukemia; DU-145 prostate; HCT-116 colon; HL-60(TB) leukemia; HS 578T breast; IGROV1 ovarian; K-562 leukemia; KM12 colon; MALME-3M melanoma; MCF7 breast; MOLT-4 leukemia; NCI-H522 lung; OVCAR-5 ovarian; OVCAR-8 ovarian; RPMI-8226 leukemia; SF-295 CNS; UO-31 renal.
Assay in all cases: inhibition of tumour cell growth, NCI panel, 48 h

On to `CC(CC[C@@]1(O)OC2C[C@H]3[C@@H]4CC[C@H]5CC(OC6OC(CO)C(OC7OC(CO)C(O)C(OC8OCC(O)C(O)C8O)C7OC7OC(CO)C(O)C(O)C7O)C(O)C6O)[C@H](O)CC5(C)[C@H]4CCC3(C)C2[C@@H]1C)COC1OC(CO)C(O)C(O)C1O` (some centres undefined), for which the TGI with A498 renal is above 50 µM; in the experiment on ACHN renal, above 50 µM; with CCRF-CEM leukemia, above 50 µM; in the experiment on DU-145 prostate, 10.3 µM; in the experiment with HCT-116 colon it was 47.3 µM; with HL-60(TB) leukemia it was 29.1 µM. The TGI in the experiment with HS 578T breast, in the experiment on IGROV1 ovarian, in the experiment with K-562 leukemia, with KM12 colon, in the experiment with MALME-3M melanoma and in the experiment with MCF7 breast was above 50 µM throughout. Further, the TGI in the experiment with MOLT-4 leukemia was above 50 µM; with NCI-H522 lung, 22.3 µM; with OVCAR-5 ovarian it was 27.8 µM; in the experiment on OVCAR-8 ovarian it was above 50 µM; in the experiment with RPMI-8226 leukemia, above 50 µM; with SF-295 CNS it was 45.2 µM. Moreover, the TGI in the experiment on UO-31 renal worked out at 21.3 µM.

Turning to `C=CC[C@]1(C2=NC(C)(C)CO2)c2ccccc2-c2ccccc2[C@H]1C(C)=O`, the TGI in the experiment on A498 renal is 21.1 µM; in the experiment with ACHN renal, above 45.9 µM; in the experiment with CCRF-CEM leukemia, 37.2 µM; in the experiment with DU-145 prostate it was 29.6 µM; in the experiment with HCT-116 colon, 20.2 µM; in the experiment with HL-60(TB) leukemia it was 15.8 µM. The TGI was 25.1 µM in the experiment on HS 578T breast; above 48.6 µM in the experiment with IGROV1 ovarian; 29.8 µM with K-562 leukemia; 38.6 µM with KM12 colon; 21 µM in the experiment with MALME-3M melanoma; 24.8 µM with MCF7 breast. Further, the TGI in the experiment on MOLT-4 leukemia is 50 µM; in the experiment with NCI-H522 lung, 9.45 µM; with OVCAR-5 ovarian, 51 µM; in the experiment with OVCAR-8 ovarian, above 52.8 µM; in the experiment with RPMI-8226 leukemia, 33.5 µM; in the experiment with SF-295 CNS, 19.1 µM. For the same molecule, the TGI in the experiment with UO-31 renal came out at 28 µM.

As for `CCNC(=S)NNC(=O)CSc1nc2ccc(I)cc2c(=O)n1Cc1ccccc1`, the TGI is above 78.2 µM with A498 renal; above 24.4 µM in the experiment with ACHN renal; above 100 µM with CCRF-CEM leukemia; above 100 µM with DU-145 prostate; above 77.1 µM in the experiment on HCT-116 colon; above 34.7 µM in the experiment with HL-60(TB) leukemia. Further, the TGI is above 100 µM in the experiment on HS 578T breast; above 100 µM in the experiment on IGROV1 ovarian; above 100 µM in the experiment on K-562 leukemia; above 100 µM in the experiment with KM12 colon; above 67.8 µM with MALME-3M melanoma; above 100 µM in the experiment with MCF7 breast. Besides, the TGI is above 100 µM in the experiment with MOLT-4 leukemia; above 100 µM with NCI-H522 lung; above 100 µM in the experiment with OVCAR-5 ovarian; above 70.4 µM in the experiment on OVCAR-8 ovarian; above 100 µM in the experiment on RPMI-8226 leukemia; above 100 µM with SF-295 CNS. Further, the TGI in the experiment on UO-31 renal is 0.136 µM.

For `O=C(C1OC1c1cccc([N+](=O)[O-])c1)C12CC3CC(CC(C3)C1)C2` (centres undefined), the TGI with A498 renal is 14.2 µM; in the experiment with ACHN renal, 23 µM; in the experiment with CCRF-CEM leukemia, 13.1 µM; in the experiment with DU-145 prostate, 26.8 µM; with HCT-116 colon it was 4.69 µM; in the experiment with HL-60(TB) leukemia, 15.8 µM. In addition, the TGI was found to be 14.3 µM with HS 578T breast; 20.2 µM in the experiment on IGROV1 ovarian; 13.2 µM in the experiment with K-562 leukemia; 13.9 µM in the experiment on KM12 colon; 27.9 µM in the experiment with MALME-3M melanoma; 12.8 µM in the experiment with MCF7 breast. The TGI in the experiment on MOLT-4 leukemia was above 22.8 µM; in the experiment with NCI-H522 lung it was 9.76 µM; in the experiment with OVCAR-5 ovarian it was 18.9 µM; in the experiment on OVCAR-8 ovarian it was 5.92 µM; in the experiment on RPMI-8226 leukemia, 6.18 µM; in the experiment on SF-295 CNS, 17.3 µM. For the same molecule, the TGI in the experiment on UO-31 renal is 21 µM.

With `COc1ccc(C2C3=C(COC3=O)OC(C)(C)Oc3cc4c(cc32)OCO4)cc1OC` (centres undefined), the TGI in the experiment on A498 renal was 63.8 µM; in the experiment on ACHN renal, above 100 µM; with CCRF-CEM leukemia it was above 100 µM; in the experiment with DU-145 prostate, above 100 µM; in the experiment on HCT-116 colon, above 92.3 µM; in the experiment on HL-60(TB) leukemia, above 87.9 µM. Also, the TGI is above 100 µM in the experiment with HS 578T breast; above 100 µM with IGROV1 ovarian; above 95.7 µM in the experiment with K-562 leukemia; 67.2 µM with KM12 colon; above 100 µM with MALME-3M melanoma; above 90.9 µM in the experiment with MCF7 breast. Also, the TGI in the experiment with MOLT-4 leukemia was above 100 µM; with NCI-H522 lung it was above 73.8 µM; in the experiment with OVCAR-5 ovarian, above 100 µM; with OVCAR-8 ovarian, above 100 µM; in the experiment on RPMI-8226 leukemia it was above 100 µM; in the experiment with SF-295 CNS, 88.4 µM. This molecule displayed a TGI with UO-31 renal above 100 µM.

Consider `CCN(CC)CCN1C(=O)C(=O)N(c2cccc3ccccc23)C1=O`, for which the TGI with A498 renal, in the experiment on ACHN renal, with CCRF-CEM leukemia, with DU-145 prostate, with HCT-116 colon and in the experiment on HL-60(TB) leukemia was above 10 µM in each case. Further, the TGI with HS 578T breast, in the experiment on IGROV1 ovarian, in the experiment on K-562 leukemia, with KM12 colon, in the experiment on MALME-3M melanoma and in the experiment on MCF7 breast was above 10 µM throughout. In addition, the TGI in the experiment on MOLT-4 leukemia, in the experiment with NCI-H522 lung, with OVCAR-5 ovarian, in the experiment with OVCAR-8 ovarian, in the experiment with RPMI-8226 leukemia and in the experiment with SF-295 CNS was above 10 µM in each case. Also, the TGI in the experiment with UO-31 renal is above 10 µM.

Consider `COc1cc(S(=O)(=O)Nc2ccc(-c3csc(N4C(=O)C(Cl)C4c4cccs4)n3)cc2)ccc1Cl` (centres undefined), for which the TGI in the experiment on A498 renal is above 100 µM; in the experiment on ACHN renal it was above 100 µM; with CCRF-CEM leukemia, 35.7 µM; in the experiment with DU-145 prostate it was above 100 µM; in the experiment on HCT-116 colon, above 100 µM; in the experiment with HL-60(TB) leukemia, above 100 µM. The TGI in the experiment on HS 578T breast, in the experiment on IGROV1 ovarian, in the experiment with K-562 leukemia, in the experiment on KM12 colon, in the experiment with MALME-3M melanoma and in the experiment on MCF7 breast was above 100 µM in each case. In addition, the TGI was above 100 µM with MOLT-4 leukemia; 30.6 µM in the experiment on NCI-H522 lung; above 100 µM in the experiment with OVCAR-5 ovarian; above 100 µM in the experiment with OVCAR-8 ovarian; above 100 µM with RPMI-8226 leukemia; above 100 µM in the experiment on SF-295 CNS. Besides, the TGI in the experiment with UO-31 renal is above 100 µM.

With `C[n+]1ccccc1/C1=c2\cc/c([nH]2)=C(\c2cccc[n+]2C)C2=N/C(=C(/c3cccc[n+]3C)C3C=CC(N3)/C(c3cccc[n+]3C)=C3/C=CC1=N3)C=C2`, the TGI with A498 renal, in the experiment on ACHN renal, in the experiment on CCRF-CEM leukemia, in the experiment on DU-145 prostate, in the experiment with HCT-116 colon and with HL-60(TB) leukemia was above 100 µM throughout. Further, the TGI in the experiment with HS 578T breast, with IGROV1 ovarian, in the experiment on K-562 leukemia, in the experiment with KM12 colon, with MALME-3M melanoma and with MCF7 breast was above 100 µM each time. In addition, the TGI in the experiment with MOLT-4 leukemia, in the experiment with NCI-H522 lung, with OVCAR-5 ovarian, with OVCAR-8 ovarian, with RPMI-8226 leukemia and with SF-295 CNS was above 100 µM throughout. The same molecule yielded a TGI in the experiment on UO-31 renal above 100 µM.

Take `C#CC(O)/C=C/C(O)CCCC(O)CC#CC(O)C#CCCCCC(O)/C=C/CCCC(O)/C=C/CCCCCCCCCCCCCC(O)C(O)C#CC(=O)O` (centres undefined): the TGI in the experiment with A498 renal, in the experiment with ACHN renal, with CCRF-CEM leukemia, with DU-145 prostate, in the experiment on HCT-116 colon and in the experiment with HL-60(TB) leukemia was above 25 µM throughout. Also, the TGI in the experiment with HS 578T breast, in the experiment on IGROV1 ovarian, in the experiment on K-562 leukemia, in the experiment with KM12 colon, with MALME-3M melanoma and in the experiment on MCF7 breast was above 25 µM in each case. Further, the TGI in the experiment on MOLT-4 leukemia, in the experiment with NCI-H522 lung, in the experiment on OVCAR-5 ovarian, in the experiment with OVCAR-8 ovarian, in the experiment with RPMI-8226 leukemia and in the experiment with SF-295 CNS was above 25 µM each time. The molecule also had a TGI with UO-31 renal above 25 µM.

With `O=C1NC(=Nc2ccccc2Cl)N/C1=C\c1ccc(Cl)cc1Cl`, the TGI in the experiment on A498 renal is above 100 µM; in the experiment on ACHN renal it was above 100 µM; in the experiment with CCRF-CEM leukemia, above 100 µM; in the experiment with DU-145 prostate, above 100 µM; in the experiment with HCT-116 colon it was above 100 µM; in the experiment with HL-60(TB) leukemia, 1.84 µM. Further, the TGI in the experiment with HS 578T breast, in the experiment on IGROV1 ovarian, with K-562 leukemia, in the experiment on KM12 colon, in the experiment on MALME-3M melanoma and in the experiment on MCF7 breast was above 100 µM throughout. Further, the TGI in the experiment on MOLT-4 leukemia, in the experiment on NCI-H522 lung, in the experiment with OVCAR-5 ovarian, with OVCAR-8 ovarian, in the experiment with RPMI-8226 leukemia and in the experiment on SF-295 CNS was above 100 µM each time. The TGI in the experiment on UO-31 renal was above 100 µM.

As for `C1=NCCOCCN=Cc2ccc(cc2)OCc2cccc(n2)COc2ccc1cc2`, the TGI with A498 renal, in the experiment with ACHN renal, in the experiment on CCRF-CEM leukemia, in the experiment with DU-145 prostate, in the experiment with HCT-116 colon and in the experiment with HL-60(TB) leukemia was above 100 µM throughout. In addition, the TGI in the experiment on HS 578T breast, with IGROV1 ovarian, with K-562 leukemia, with KM12 colon, with MALME-3M melanoma and in the experiment on MCF7 breast was above 100 µM each time. The TGI with MOLT-4 leukemia, in the experiment on NCI-H522 lung, in the experiment with OVCAR-5 ovarian, with OVCAR-8 ovarian, in the experiment with RPMI-8226 leukemia and in the experiment on SF-295 CNS was above 100 µM each time. Further, in the experiment with UO-31 renal, the TGI is above 100 µM.
